Values of other authors, collected in patent publication US6423339B1, “Liquisolid systems and methods of preparing same” (priority 1996, dated 2002).

Key:
[1] = diuretic

SMILES	Solubility in alcohol (descriptive)	Solubility in chloroform (descriptive)	Solubility in water (descriptive)	Volume of alcohol in which 1 gram of drug is soluble (per 1 gram of drug)	Volume of chloroform in which 1 gram of drug is soluble (per 1 gram of drug)	other results
CCOC(=O)C(C)(C)Oc1ccc(Cl)cc1 [Clofibrate]	soluble	soluble	insoluble (1 part solute into 10,000 or more parts of water)			Solubility in other common organic solvents (descriptive): soluble; Stability (descriptive) (liquid drug): stable
Cc1ccc(C)c(OCCCC(C)(C)C(=O)O)c1 [Gemflbrozil]			practically water-insoluble (1 part solute into 10,000 or more parts of water)			
NS(=O)(=O)c1cc2c(cc1Cl)NCNS2(=O)=O [Hydrochlorothiazide]						Potency relative to chlorothiazide [1]: 10 times
CN1C(CCl)Nc2cc(Cl)c(S(N)(=O)=O)cc2S1(=O)=O (centres unmarked) [Methyclothiazide]				92.5 mL	more than 10,000 ml	Solubility in acetone (descriptive): freely soluble; pka: 9.4; Volume of ether in which 1 gram of drug is soluble (per 1 gram of drug): 2,700 ml; Volume of water in which 1 gram of drug is soluble (per 1 gram of drug): more than 10,000 ml
C[C@]12C=CC(=O)C=C1CC[C@@H]1[C@@H]2C(=O)C[C@@]2(C)[C@H]1CC[C@]2(O)C(=O)CO [Prednisone]			very slightly soluble	150 mL	200 mL	
CC(=O)S[C@@H]1CC2=CC(=O)CC[C@]2(C)[C@H]2CC[C@@]3(C)[C@@H](CC[C@@]34CCC(=O)O4)[C@H]12 [Spironolactone]	soluble	freely soluble	practically insoluble			Solubility in fixed oils (descriptive): slightly soluble
